From US5242938A, “Derivatives of virginiamycin M1” (Merck & Co., Inc., priority 1992, dated 1993)
≈ marks a conversion by molar mass, not a printed value. Like-named read-outs stand apart in the source and are kept apart here.

Legend:
[1] = biological target: T1, CCK-B (guinea pig cortex) (Cavia porcellus, UniProt H0VZC5); assay: [125I]BHCCK-8 radioligand binding, guinea pig cortical preparation; details: read-out: CCK binding inhibition - IC50, [125I]BHCCK
T1 construct: guinea pig cortical preparations; from tissue; host or cells: guinea pig brain cortex membranes
T1 sequence (H0VZC5 1-426): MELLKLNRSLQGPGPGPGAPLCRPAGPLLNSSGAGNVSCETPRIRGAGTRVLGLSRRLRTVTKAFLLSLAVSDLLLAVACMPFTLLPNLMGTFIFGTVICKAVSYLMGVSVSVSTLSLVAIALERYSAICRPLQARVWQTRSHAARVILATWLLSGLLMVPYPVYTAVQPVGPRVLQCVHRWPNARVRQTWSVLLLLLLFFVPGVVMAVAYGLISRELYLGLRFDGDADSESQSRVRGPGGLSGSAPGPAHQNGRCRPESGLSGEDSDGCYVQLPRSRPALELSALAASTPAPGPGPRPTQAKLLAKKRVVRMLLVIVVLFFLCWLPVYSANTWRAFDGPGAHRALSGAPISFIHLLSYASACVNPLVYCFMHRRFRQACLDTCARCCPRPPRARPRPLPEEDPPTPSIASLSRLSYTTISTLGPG
Procedure: (§1) The resulting supernatant was re-spun at 20,000×g for 20 minutes. […] Incubations were for 40 minutes at 4° C. and were terminated by filtration and washing with ice cold 100 mM saline. […] Incubations were for 30 minutes at room temperature and were terminated by filtration over GF/C filters and washing with 100 mM NaCl.

[2] = system: Micrococcus luteus (Mb 1101, ATCC 9341); assay: Agar diffusion disc assay, Micr 1101; assay type: cell-based; details: Micrococcus luteus; for MIC: read-out: Agar Diffusion MIC versus Micrococcus luteus; for zone of inhibition at 1.25 µg/disc: 1.25 μg/disc; for zone of inhibition at 2.5 µg/disc: 2.50 μg/disc; for zone of inhibition at 5 µg/disc: 5.00 μg/disc; for zone of inhibition at 10 µg/disc: 10.0 μg/disc
Procedure: (§2) Cultures employed in evaluating antimicrobial activity included plant pathogens, human and animal opportunistic pathogens and selected laboratory strains having specific-antibiotic sensitivities or chromosomal or R-plasmid-mediated resistances. […] The agar diffusion MIC's were determined using the method described by Barry in Anitbiotics in Laboratory Medicine, 2nd Ed., Ed. V. Lorian, pp. 1-63, William & Wilkins, Baltimore, 1986. Each test compound was dissolved in methanol to a concentration of 1 mg/ml. Serial dilutions of these compounds were also made to determine an agar diffusion MIC. 20 μl of each dilution was pipetted on to 6 mm paper discs, air dried and placed onto the surface of an agar plate seeded with the appropriate bacteria (~10^6 cfu). Seeded agar plates were incubated overnight (~18 hours) at 25° C. Zone sizes were measured to the nearest mm. Each compound was tested in triplicate and the results shown represent the mean.

CCK-A (rat pancreas) [3] = biological target: T2, CCK-A (rat pancreas) (Rattus norvegicus, UniProt P30551); assay: [125I]BHCCK-8 radioligand binding, rat pancreatic preparation; details: read-out: CCK binding inhibition - IC50, [125I]BHCCK
T2 construct: from tissue; host or cells: rat pancreas
T2 sequence (P30551 1-444): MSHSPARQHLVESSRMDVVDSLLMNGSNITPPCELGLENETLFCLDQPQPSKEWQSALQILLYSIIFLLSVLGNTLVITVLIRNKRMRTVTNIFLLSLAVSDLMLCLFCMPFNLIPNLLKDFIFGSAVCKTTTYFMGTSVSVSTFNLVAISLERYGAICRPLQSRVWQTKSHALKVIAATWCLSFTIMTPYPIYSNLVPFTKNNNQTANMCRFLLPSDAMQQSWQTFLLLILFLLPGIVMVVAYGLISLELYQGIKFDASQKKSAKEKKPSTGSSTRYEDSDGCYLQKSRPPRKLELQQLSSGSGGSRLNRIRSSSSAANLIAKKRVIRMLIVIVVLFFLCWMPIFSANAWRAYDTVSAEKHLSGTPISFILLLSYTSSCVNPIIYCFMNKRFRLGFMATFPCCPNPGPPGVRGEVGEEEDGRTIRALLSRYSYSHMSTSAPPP
Procedure: as §1

[4] = system: Escherichia coli (Mb 1418); assay: Agar diffusion disc assay, Coli 1418; assay type: cell-based; details: Escherichia coli, 18 h; @ 20 g/disc; read-out: Inhibition zone diameter, Coli 1418
Procedure: as §2

[5] = system: Corynebacterium pseudodiphtheriticum (Mb 261, ATCC 9742); assay: Agar diffusion disc assay, Cory 261; assay type: cell-based; details: Corynebacterium pseudodiphtheriticum, ATCC9742, 18 h; @ 20 g/disc; read-out: Inhibition zone diameter, Cory 261
Procedure: as §2

[6] = system: Salmonella gallinarum (Mb 1287); assay: Agar diffusion disc assay, Salm 1287; assay type: cell-based; details: Salmonella enterica, GALLINARUM, 18 h; @ 20 g/disc; read-out: Inhibition zone diameter, Salm 1287
Procedure: as §2

Bacillus sp. (Mb 633) = assay: Agar diffusion disc assay, Baci 633; assay type: cell-based; details: Bacillus, 18 h, @ 20 g/disc; read-out: Inhibition zone diameter, Baci 633
Procedure: as §2

[7] = system: Bacillus subtilis (Mb 964, ATCC 6633); assay: Agar diffusion disc assay, Subt 964; assay type: cell-based; details: Bacillus subtilis, ATCC6633, 18 h; @ 20 g/disc; read-out: Inhibition zone diameter, Subt 964
Procedure: as §2

[8] = system: En terobacter aergenes (Mb 835); assay: Agar diffusion disc assay, Ent 835; assay type: cell-based; details: 18 h; @ 20 g/disc; read-out: Inhibition zone diameter, Ent 835
Procedure: as §2

[9] = system: Streptococcus faecium (Mb 2820); assay: Agar diffusion disc assay, Str 2820; assay type: cell-based; details: Enterococcus faecium, 18 h; @ 20 g/disc; read-out: Inhibition zone diameter, Str 2820
Procedure: as §2

CCK-A (rat pancreas) [10] = biological target: T2, CCK-A (rat pancreas); assay: [3H]L-364,718 CCK-A selective antagonist ligand binding, pancreas; details: for IC50: read-out: CCK binding inhibition - IC50, [3H]L-364,718
Procedure: as §1

[11] = biological target: T1, CCK-B (guinea pig cortex); assay: [3H]L-365,260 CCK-B selective antagonist ligand binding, brain membranes; details: for IC50: read-out: CCK binding inhibition - IC50, [3H]L-365,260
Procedure: as §1

[12] = system: Staphylococcus aureus (Mb 108, ATCC 6538P); assay: Agar diffusion disc assay, Sta 108; assay type: cell-based; details: Staphylococcus aureus, ATCC6538P, 18 h; @ 20 g/disc; read-out: Inhibition zone diameter, Sta 108
Procedure: as §2

[13] = system: Staphylococcus aureus (Mb 2983); assay: Agar diffusion disc assay, Sta 2983; assay type: cell-based; details: Staphylococcus aureus, 18 h; @ 20 g/disc; read-out: Inhibition zone diameter, Sta 2983
Procedure: as §2

[14] = system: Streptococcus agalactiae (Mb 2875); assay: Agar diffusion disc assay, Str 2875; assay type: cell-based; details: Streptococcus agalactiae, 18 h; @ 20 g/disc; read-out: Inhibition zone diameter, Str 2875
Procedure: as §2

[15] = system: Pseudomonas stutzeri (Mb 1231, ATCC 11607); assay: Agar diffusion disc assay, Pseu 1231; assay type: cell-based; details: Stutzerimonas stutzeri, ATCC11607, 18 h; @ 20 g/disc; read-out: Inhibition zone diameter, Pseu 1231
Procedure: as §2

[16] = ATCC9341, 18 h, @ 20 g/disc, read-out: Inhibition zone diameter, Micr 1101
[17] = ATCC9341, 25° C., ~18 hours, read-out: Mean of triplicate zone size versus Micrococcus luteus
[18] = ATCC9341, 20.0 μg/disc, 25° C., ~18 hours, read-out: Mean of triplicate zone size versus Micrococcus luteus

Compound | IC50 [1] | zone of inhibition at 20 µg/disc [2, 16] | MIC ([2]; ATCC9341, 18 h) | zone of inhibition at 10 µg/disc [2, 17] | zone of inhibition at 20 µg/disc [2, 18] | IC50 (CCK-A (rat pancreas) [3]) | zone of inhibition at 20 µg/disc [4] | zone of inhibition at 20 µg/disc [5] | zone of inhibition at 20 µg/disc [6] | zone of inhibition at 20 µg/disc (Bacillus sp. (Mb 633)) | zone of inhibition at 20 µg/disc [7] | zone of inhibition at 20 µg/disc [8] | zone of inhibition at 20 µg/disc [9] | IC50 (CCK-A (rat pancreas) [10]) | A.R. = agonist ratio = IC50([3H]L365,260)/IC50([125I]CCK) [11] | IC50 [11] | zone of inhibition at 20 µg/disc [12] | zone of inhibition at 20 µg/disc [13] | zone of inhibition at 20 µg/disc [14] | zone of inhibition at 20 µg/disc [15] | also measured
CCCCC(=O)O[C@@H]1/C=C(C)/C=C/CNC(=O)/C=C/[C@@H](C)[C@@H](C(C)C)OC(=O)C2=CCCN2C(=O)c2coc(n2)CC(=O)C1 [Example 4] | 500 nM | 25 mm | 0.54 µM (≈ 0.329 µg/mL) | 21 mm | 22 mm | > 3000 nM | 0 mm | 0 mm | 0 mm | 0 mm | 0 mm | 0 mm | 0 mm | > 3000 nM | 2 | 1200 nM | 0 mm | 0 mm | 0 mm | 0 mm | zone of inhibition at 1.25 µg/disc [2, 17]: 12 mm; zone of inhibition at 2.5 µg/disc [2, 17]: 16 mm; zone of inhibition at 5 µg/disc [2, 17]: 19 mm
CC1=C\[C@@H](OC(=O)Nc2cccc([N+](=O)[O-])c2)CC(=O)Cc2nc(co2)C(=O)N2CCC=C2C(=O)O[C@H](C(C)C)[C@H](C)/C=C/C(=O)NC\C=C\1 [Example 9] | 400 nM | 8 mm | 0.82 µM (≈ 0.566 µg/mL) | 8 mm | 9 mm | > 3000 nM | 0 mm | 0 mm | 0 mm | 0 mm | 0 mm | 0 mm | 0 mm | > 3000 nM | 12.9 | 5200 nM | 0 mm | 0 mm | 0 mm | 0 mm | zone of inhibition at 40 µg/disc ([2]; ATCC9341, 40.0 μg/disc, 25° C., ~18 hours, read-out: Mean of triplicate zone size versus Micrococcus luteus): 10 mm; zone of inhibition at 80 µg/disc ([2]; ATCC9341, 80.0 μg/disc, 25° C., ~18 hours, read-out: Mean of triplicate zone size versus Micrococcus luteus): 11 mm; zone of inhibition at 160 µg/disc ([2]; ATCC9341, 160 μg/disc, 25° C., ~18 hours, read-out: Mean of triplicate zone size versus Micrococcus luteus): 11 mm
CC1=C\[C@@H](OC(=O)Nc2ccc([N+](=O)[O-])cc2)CC(=O)Cc2nc(co2)C(=O)N2CCC=C2C(=O)O[C@H](C(C)C)[C@H](C)/C=C/C(=O)NC\C=C\1 [Example 10] | 1600 nM | 13 mm | 3.94 µM (≈ 2.72 µg/mL) | 10 mm | 12 mm | > 3000 nM | 0 mm | 9 mm | 0 mm | 0 mm | 0 mm | 0 mm | 0 mm | > 3000 nM | 8.7 | 13100 nM | 9 mm | 0 mm | 0 mm | 0 mm | zone of inhibition at 5 µg/disc [2, 17]: 7 mm
CC1=C\[C@@H](OC(=O)Nc2ccccc2)CC(=O)Cc2nc(co2)C(=O)N2CCC=C2C(=O)O[C@H](C(C)C)[C@H](C)/C=C/C(=O)NC\C=C\1 [Example 11] | 300 nM | 14 mm | 0.05 µM (≈ 0.0322 µg/mL) | 12 mm | 12 mm | 2300 nM | 0 mm | 0 mm | 0 mm | 0 mm | 0 mm | 0 mm | 0 mm | 4000 nM | 5.3 | 1600 nM | 0 mm | 0 mm | 0 mm | 0 mm | zone of inhibition at 1.25 µg/disc [2, 17]: 7 mm; zone of inhibition at 2.5 µg/disc [2, 17]: 10 mm; zone of inhibition at 5 µg/disc [2, 17]: 11 mm; A.R. = agonist ratio (CCK-A (rat pancreas) [10]; [3H]L-364,718 / [125I]BHCCK): 1.7
